Assay results: patent US8153645B2, “Treating pain using selective antagonists of persistent sodium current” (Allergan, Inc., priority 2003, dated 2012)

What was measured:
Nav1.3 sodium channel [1] = molecular target: T1, Nav1.3 sodium channel (Homo sapiens, UniProt Q9NY46); assay: High-throughput persistent sodium current assay (VIPR, FRET dyes): Na+-dependent depolarization of HEK-Nav1.3 cells; type: cell-based; parameters: expressed in transfected cells; host or cells: HEK-293 (human embryonic kidney) cells, G418-selected (HEK-Nav1.3); conditions: 10 μM tetracaine, HEK-Nav1.3, FIG. 2
T1 sequence (Q9NY46 whole entry): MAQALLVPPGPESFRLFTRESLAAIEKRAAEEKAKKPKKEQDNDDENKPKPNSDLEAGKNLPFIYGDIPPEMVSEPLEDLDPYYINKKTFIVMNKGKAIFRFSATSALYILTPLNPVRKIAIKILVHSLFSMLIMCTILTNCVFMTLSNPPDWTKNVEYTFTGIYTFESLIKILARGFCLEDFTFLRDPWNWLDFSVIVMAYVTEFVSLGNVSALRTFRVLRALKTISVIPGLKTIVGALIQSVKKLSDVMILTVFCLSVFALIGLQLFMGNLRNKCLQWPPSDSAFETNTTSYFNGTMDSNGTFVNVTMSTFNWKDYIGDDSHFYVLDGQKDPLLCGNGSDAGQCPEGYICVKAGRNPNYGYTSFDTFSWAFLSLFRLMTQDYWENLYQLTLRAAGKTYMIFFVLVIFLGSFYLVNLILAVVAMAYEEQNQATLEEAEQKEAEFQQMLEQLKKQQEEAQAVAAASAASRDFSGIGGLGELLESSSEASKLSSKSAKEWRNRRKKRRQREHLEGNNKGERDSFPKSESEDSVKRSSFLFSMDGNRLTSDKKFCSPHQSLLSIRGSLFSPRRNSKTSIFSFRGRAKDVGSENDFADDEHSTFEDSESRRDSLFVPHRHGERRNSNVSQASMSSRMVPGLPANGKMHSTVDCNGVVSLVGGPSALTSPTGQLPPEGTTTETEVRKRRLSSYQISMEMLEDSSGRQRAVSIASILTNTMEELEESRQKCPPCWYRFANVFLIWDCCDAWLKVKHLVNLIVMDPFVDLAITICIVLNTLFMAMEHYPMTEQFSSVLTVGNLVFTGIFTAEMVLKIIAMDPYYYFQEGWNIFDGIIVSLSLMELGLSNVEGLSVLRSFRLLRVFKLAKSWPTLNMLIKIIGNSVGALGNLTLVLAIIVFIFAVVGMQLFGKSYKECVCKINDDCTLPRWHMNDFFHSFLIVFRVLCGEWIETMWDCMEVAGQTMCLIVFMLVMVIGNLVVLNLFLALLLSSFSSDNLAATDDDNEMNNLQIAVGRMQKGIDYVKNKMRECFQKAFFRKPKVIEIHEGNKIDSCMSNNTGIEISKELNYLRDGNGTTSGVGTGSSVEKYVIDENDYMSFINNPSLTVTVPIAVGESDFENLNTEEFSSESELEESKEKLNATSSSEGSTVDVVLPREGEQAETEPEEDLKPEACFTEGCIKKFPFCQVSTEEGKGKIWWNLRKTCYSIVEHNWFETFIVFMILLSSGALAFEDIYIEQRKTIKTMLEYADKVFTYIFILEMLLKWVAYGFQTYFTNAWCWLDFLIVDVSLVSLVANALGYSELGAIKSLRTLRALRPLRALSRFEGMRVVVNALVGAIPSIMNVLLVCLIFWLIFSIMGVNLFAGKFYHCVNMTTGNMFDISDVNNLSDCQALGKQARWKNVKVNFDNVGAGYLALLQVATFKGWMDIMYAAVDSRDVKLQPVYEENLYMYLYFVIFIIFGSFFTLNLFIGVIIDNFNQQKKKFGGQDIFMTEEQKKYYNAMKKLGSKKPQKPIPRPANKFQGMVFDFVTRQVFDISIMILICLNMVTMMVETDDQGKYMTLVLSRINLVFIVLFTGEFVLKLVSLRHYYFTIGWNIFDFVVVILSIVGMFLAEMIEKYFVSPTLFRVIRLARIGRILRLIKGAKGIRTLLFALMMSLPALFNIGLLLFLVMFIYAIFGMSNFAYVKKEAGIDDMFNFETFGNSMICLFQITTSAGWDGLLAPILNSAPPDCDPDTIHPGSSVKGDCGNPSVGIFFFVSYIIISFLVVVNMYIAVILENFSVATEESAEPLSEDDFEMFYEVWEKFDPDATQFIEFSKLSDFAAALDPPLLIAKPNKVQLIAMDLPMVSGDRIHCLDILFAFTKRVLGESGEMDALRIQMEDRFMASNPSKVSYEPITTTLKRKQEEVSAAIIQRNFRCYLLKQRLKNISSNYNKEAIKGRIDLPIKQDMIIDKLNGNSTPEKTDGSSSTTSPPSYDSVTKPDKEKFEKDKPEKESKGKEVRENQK

tactile allodynia = assay: Spinal nerve ligation (Chung) model of neuropathic pain, tactile allodynia by von Frey hairs; type: in vivo; conditions: rat, 10 mg/kg i.p., 30 minutes after dosing, FIG. 6
Description: Paw withdrawal threshold (gram force) was determined using von Frey filament stimulation and the Dixon's up-down method. Allodynic response was measured at baseline (0 min) and at 15, 30, 60 and 120 min after of 10 mg/kg IP injection of Compound 1 or vehicle control. Percent reversal of allodynia compared with non-injected rats was calculated. Six rats were used at each dose. Data were analyzed by analysis of variance and Dunnett's test reversal of allodynia was considered significant if P<0.05
Compound 1 was tested in a rodent model of neuropathic pain known to be predictive of clinical activity, see, e.g., Kim & Chung, supra, (1992). Following ligation of two spinal nerves, the animals developed sensitivity to normally non-painful stimuli such as touch. The ability of Compound 1 to reverse this sensitivity, called allodynia, was tested 30 minutes after dosing by intraperitoneal administration.
The animal model used involved the surgical ligation of the L5 (and optionally the L6) spinal nerves on one side in experimental animals. […]
Tactile allodynia was measured prior to and 30 minutes after drug administration using von Frey hairs, which are a series of fine hairs with incremental differences in stiffness. […] The applied force has been calculated to range from 0.41 to 15.1 grams. […]

Nav1.3 sodium channel [2] = molecular target: T1, Nav1.3 sodium channel
[3] = 3 μM, 200 msec pulse to 0 mV from -90 mV, FIG. 4

Row | Inhibition of Na+-dependent change in Rf/Ri (depolarization) (Nav1.3 sodium channel [1]) | Block of persistent current (Nav1.3 sodium channel [2]; [3]) | Reduction of transient current (Nav1.3 sodium channel [2]; [3]) | Hillslope, persistent current (Ip) (Nav1.3 sodium channel [2]; Hill equation fit, FIG. 5) | Hillslope, transient Na+ current (It) (Nav1.3 sodium channel [2]; Hill equation fit, FIG. 5) | Compound | Reduction in allodynia with respect to a vehicle control (tactile allodynia)
1 | inhibited | – | – | – | – | CCCCNc1ccc(C(=O)OCCN(C)C)cc1 [Tetracaine, tetracaine] | –
2 | – | 99% | 16% | 0.733 | 0.354 | O=C(NCCCCc1ccccc1)c1cccs1 [Compound 1, thiophene-2-carboxylic acid (4-phenyl-butyl)-amide] | 80%
